Experimental data as given in US9200333B2, “Methods for identifying modulators of murine double minute 2” (Indiana University Research and Technology Corporation, priority 2012, dated 2015).

Legend:
Type in all cases: cell-based, human
[1] = tested on: neddylating activity of Mdm2 (neddylated p53) in H1299 cells; test: Western blot of neddylated p53 in H1299 cells transfected with p53, Mdm2 and CA-Src; settings: vs DMSO, FIG. 29
Method: (§1) Mammalian cells (H1299 and MCF7) were cultured at 37° C. in a humidified incubator with 5% CO2 in DMEM high glucose plus 10% FBS. Transfection in H1299 was performed using a calcium phosphate method and in MCF7 using Lipofectamine Plus reagent (Invitrogen). Equal amounts of DNA were transfected into cells and incubated for the indicated times prior to analysis. PPI (Calbiochem) and MLN4924 (LifeSensors) were used at concentrations provided. Site-directed mutagenesis was performed by PCR, and constructs were sequenced in their entirety.
H1299 cells were transfected with His-Ubiquitin or His-Nedd8 and other plasmids as indicated using calcium phosphate method. 48 hours after transfection, cells were lysed in 1 ml of 6M guanidinium-HCl, 0.1M Na2HPO4/NaH2PO4, 0.01M Tris-HCl pH 8.0 plus 5 mM Imidazole and 10 mM β-mercaptoethanol. After sonication, the lysates were mixed with 30 μl of Ni^2+-NTA-agarose beads (Qiagen) prewashed with lysis buffer and incubated for 2 hours at room temperature. The beads were successively washed and eluted.
Based on transient transfection data that supported its role as a neddylating enzyme, the affect of pharmacological inhibition of neddylating activity of Mdm2 using MLN4924 was determined.

[2] = tested on: p53 activity (PG13-Luc) in H1299 cells; test: PG13-Luc luciferase assay in H1299 cells transfected with p53, Mdm2 and CA-Src; settings: H1299 cells transfected with PG-13-luc, FIG. 32
Method: (§2) For the luciferase assays, H1299 and MCF7 cells were transfected with PG13-Luc, Mdm2-P2-Luc, Maspin-Luc or Mutant Maspin-Luc (MT1) along with Myc-LacZ for determination of […] activity, using the calcium phosphate method. Reporter activity was normalized to […] activity. Data generated were done in triplicate and standard deviation was calculated from the mean.
H1299 cells were transfected with the PG-13-luc, p53, Mdm2 and CA-Src. Reduction in p53 activity by Mdm2 was further increased in the presence of c-Src.

[3] = tested on: endogenous Mdm2 tyrosine phosphorylation in MCF7 cells; test: Immunoprecipitation of Mdm2 from MCF7 extracts and immunoblot for phosphorylated tyrosine; settings: MCF7 cells pretreated 16 hrs; FIG. 8
Method: as §1
Whole cell lysates (Lysates) were prepared in Nonidet P-40 lysis buffer (25 mM Tris, pH 8.0, 150 mM NaCl, 0.5 mM EDTA, 0.5 mM EGTA, 1% Nonidet P-40, 1 mM sodium orthovanadate, 1 mM DTT) and supplemented with protease inhibitor mixture set III (Calbiochem) at 1:100 and incubated on ice for 30 min. Debris was collected by centrifugation, and equal amounts of supernatant protein were determined by BioRad assay. Protein was fractionated by SDS-PAGE and transferred to PVDF membrane (Amersham Biosciences). […]
First, H1299 cells were transfected with HA-tagged Mdm2 (HA-Mdm2) with either constitutively active c-Src (CA-Src) or a kinase dead Src (KD-Src). […] Along with overexpression, whether c-Src could phosphorylate endogenous Mdm2 was determined. […]

[4] = tested on: Mdm2 protein levels in MCF7 cells; test: Western blot of endogenous Mdm2 protein levels in MCF7 cells
Method: as §1
(§3) Whole cell lysates (Lysates) were prepared in Nonidet P-40 lysis buffer (25 mM Tris, pH 8.0, 150 mM NaCl, 0.5 mM EDTA, 0.5 mM EGTA, 1% Nonidet P-40, 1 mM sodium orthovanadate, 1 mM DTT) and supplemented with protease inhibitor mixture set III (Calbiochem) at 1:100 and incubated on ice for 30 min. Debris was collected by centrifugation, and equal amounts of supernatant protein were determined by BioRad assay. Protein was fractionated by SDS-PAGE and transferred to PVDF membrane (Amersham Biosciences). Antibodies used for Western blotting were: Mdm2 (SMP14, 2Al0, and 4Bl1), c-Src (B-12; Santa Cruz), p53 (DO-1), tubulin (TU-02), GAPDH (8C2), and β-actin (C4; Santa Cruz Biotechnology); phosphotyrosine (4010; Upstate); phospho-c-Src Tyr^416 (Cell Signaling); Myc (9E10) and HA (12CA5) Immunoprecipitation from lysates was performed using 500 ng of either SMP14 for Mdm2, HA (12CA5), p53 (D01) or c-Src (B-12) antibody overnight at 4° C. in 700 μl of PBS. Protein A/G Plus Agarose (Santa Cruz Biotechnology) was added to the mixture and incubated an additional 2 hrs at 4° C., precipitates were washed three times in PBS, and samples were resuspended in SDS loading buffer and boiled for 5 min.
To examine how c-Src regulates endogenous Mdm2 protein levels, c-Src was activated through epidermal growth factor (EGF) stimulation of MCF7 cells. MCF7 cells were serum-starved for 48 hrs and then treated with 200 ng/mL of EGF for a time course of 2 hrs. […]

[5] = tested on: mdm2 P2 promoter; test: mdm2-P2-Luc luciferase reporter assay in MCF7 cells; settings: vs DMSO, FIG. 16
Method: as §2
To determine whether c-Src altered mdm2 gene expression, a luciferase reporter assay was conducted in which the mdm2 P2 promoter was attached to luciferase.

[6] = tested on: p53 levels in MCF7 cells; test: Western blot of endogenous p53 levels in MCF7 cells
Method: as §3
To examine endogenous p53 levels, MCF 7 cells were transfected with increasing amounts of CA-Src. […]

[7] = tested on: endogenous neddylated p53 in MCF7 cells; test: Immunoprecipitation of p53 from MCF7 cells and anti-Nedd8 immunoblot; settings: vs DMSO, FIG. 30
Method: as §3
To determine the role of c-Src on endogenous neddylation of p53, the c-Src inhibitor PP1 was used to treat MCF7 cells. MCF7 cells were treated with PP1, and p53 was immunoprecipitated from cell extracts. […]

[8] = tested on: p53 activity on the maspin promoter in MCF7 cells; test: Maspin-Luc luciferase assay in MCF7 cells; settings: 16 hrs, FIG. 35
Method: as §2
To ensure that the decrease seen on the maspin promoter was due to c-Src phosphorylation of Mdm2, another luciferase assay was done using the Y281-302F Mdm2 and CA-Src. […] For further insight on how endogenous neddylation of p53 would affect maspin level, MCF7 cells were transfected with the maspin-Luc construct or a mutant maspin-Luc (MT1) that is unresponsive to p53, to ensure luciferase activity was dependent on p53. c-Src was then inhibited for 16 hrs using PP1 and a luciferase assay was performed. […] These findings provide insight into the regulation of c-Src-induced neddylation of p53. This neddylation event is responsible for the further reduction in p53 activity on both the PG13-Luc and on its ability to activate the tumor suppressor maspin (FIG. 37).

[9] = tested on: maspin protein in MCF7 cells; test: Western blot of Maspin in MCF7 cells; settings: vs DMSO, FIG. 36
Method: as §3
To ensure that the decrease seen on the maspin promoter was due to c-Src phosphorylation of Mdm2, another luciferase assay was done using the Y281-302F Mdm2 and CA-Src. […]

Compound: NS(=O)(=O)OC[C@@H]1C[C@@H](n2ccc3c(N[C@H]4CCc5ccccc54)ncnc32)C[C@@H]1O [MLN4924]
- neddylated p53 [1]: loss of neddylated p53
- p53 activity (PG13-Luc) [2]: restored p53 activity to levels observed with Mdm2 alone

Compound: Cc1ccc(-c2nn(C(C)(C)C)c3ncnc(N)c23)cc1 [PP1]
- endogenous Mdm2 tyrosine phosphorylation [3]: loss of endogenous Mdm2 tyrosine phosphorylation
- Mdm2 levels ([4]; MCF7 cells, increasing concentrations (1, 5, 10, 15, 20 μM), FIG. 14): dose-dependent decrease in Mdm2 levels
- Mdm2 protein level after EGF ([4]; serum starved MCF7 cells pre-treated 1 hr before addition of EGF, FIG. 13): no apparent increase in Mdm2
- mdm2 promoter luciferase activity [5]: No difference
- p53 levels ([6]; MCF7 cells, increasing concentrations (1, 5, 10, 15, 20 μM), FIG. 24): dose dependent decrease in p53 levels
- endogenous neddylated p53 [7]: decrease in endogenous neddylated p53
- p53 activity on maspin-Luc construct [8]: increase of p53 activity on the maspin-Luc construct
- maspin protein level [9]: maspin protein was increased

Compound: EGF: epidermal growth factor used to activate c-Src in MCF7 cells
- Mdm2 protein levels on EGF stimulation ([4]; MCF7 cells serum-starved 48 hrs, 200 ng/mL, time course of 2 hrs, FIG. 12): increase of Mdm2 protein levels
- p53 levels on EGF stimulation ([6]; MCF7 cells serum starved 48 hours, 1-hour time course, FIG. 23): increase in p53
